# Biological target: T1, eIF2Bα (Homo sapiens, UniProt Q14232)
# T1 construct: made in house; host or cells: E. coli BL21(DE3)
# T1 sequence (Q14232 1-305): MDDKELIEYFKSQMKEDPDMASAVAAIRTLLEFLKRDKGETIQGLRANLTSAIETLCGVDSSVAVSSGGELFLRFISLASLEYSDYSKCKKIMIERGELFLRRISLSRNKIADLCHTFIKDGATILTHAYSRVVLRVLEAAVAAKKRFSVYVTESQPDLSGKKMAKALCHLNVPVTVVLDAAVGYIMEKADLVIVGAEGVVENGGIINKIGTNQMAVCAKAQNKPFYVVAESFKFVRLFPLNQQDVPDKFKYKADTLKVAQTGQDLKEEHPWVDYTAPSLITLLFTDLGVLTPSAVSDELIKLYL
# Test: MIDAS (mass spectrometry integrated with equilibrium dialysis) metabolite binding screen
# Settings: MIDAS metabolite binding screen with eIF2Bα; sheet "eIF2Ba"
# Procedure: Metabolites were combined into four defined screening pools. […] To the reverse side, 300 μL of 50 μM per metabolite pool was aliquoted and sealed (metabolite chamber). Loaded dialysis plates were placed in the dark at 4 °C on a rotating shaker (120 rpm) and incubated for 40 h. Post-dialysis, metabolites were isolated from each chamber by cold methanol extraction. Each sample was analyzed in technical triplicate by FIA-MS on a SCIEX X500R QTOF MS with interspersed blanks injections. The input metabolite pools were assayed at the beginning, middle, and end of each MS method batch for QC and normalization.
# MIDAS FIA-MS spectra were processed in SCIEX OS 1.6 software to determine metabolite abundances by integrating the mean area under the curve for each extracted ion chromatogram. For each dialysis replicate, log2(fold change) for each metabolite was calculated as the difference between the log2 abundance in the protein chamber and metabolite chamber. For each technical triplicate, up to one outlier was removed using a z-score cutoff of five (<0.1% of observations). The corrected technical replicates were collapsed to one mean fold-change summary per protein-metabolite pair. To remove fold-change variation that was not specific to a given metabolite-protein pair, the first three principal components of the total screening dataset were removed on a per metabolite pool basis by subtracting the projection of the first 3 principal components, creating log2(corrected fold change). Protein-metabolite z-scores were determined by comparing the target protein-metabolite log2(corrected fold change) to a no-signal model for that metabolite using measures of the central tendency (median) and standard deviation (extrapolated from the 25–75% quantiles), which are robust to the signals in the tails of a metabolite’s fold-change distribution. Z-scores were false-discovery rate controlled using Storey’s q-value (qvalue, R) and protein-metabolite interactions with q-values < 0.1 were considered significant.
row,SMILES,log2(corrected fold change)
1,CC(=O)N[C@H]1[C@H]([C@H](O)[C@H](O)CO)O[C@](OP(=O)(O)OC[C@H]2O[C@@H](n3ccc(N)nc3=O)[C@H](O)[C@@H]2O)(C(=O)O)C[C@@H]1O,-0.01546
2,CC(=O)NC1C(OP(=O)(O)OP(=O)(O)OCC2OC(n3ccc(=O)[nH]c3=O)C(O)C2O)OC(CO)C(O)C1O (stereo not shown),-0.0409
3,Nc1c(O)cccc1C(=O)CC(N)C(=O)O (racemic) [3-Hydroxy-DL-kynurenine],0.08675
4,NC(CP(=O)(O)O)C(=O)O (racemic) [DL-2-Amino-3-phosphonopropionic acid],-0.05707
5,"O=C(O)C(O)c1ccc(O)c(O)c1 (racemic) [DL-3,4-Dihydroxymandelic acid]",-0.05412
6,NC(CCS)C(=O)O (racemic) [DL-Homocysteine],-0.005857
7,O=C(O)CC(C(=O)O)C(O)C(=O)O (racemic) [DL-Isocitric acid],-0.01609
8,Cn1cnc(CCN)c1 [1-Methylhistamine],-0.03686
9,C[n+]1cccc(C(N)=O)c1 [1-Methylnicotinamide],0.02855
10,"O=C(O)C(O)CO (stereo not shown) [2,3-Dihydroxypropanoic acid]",0.03679
11,"OCC(O)COC1OC(CO)C(O)C(O)C1O (stereo not shown) [2,3-Dihydroxypropyl hexopyranoside]",0.03531
12,"O=C(O)C(COP(=O)(O)O)OP(=O)(O)O [2,3-Diphospho-D-glyceric acid]",0.003153
13,"O=C(O)c1cc(O)ccc1O [2,5-Dihydroxybenzoic acid]",0.05271
14,O=C(O)C[C@H](O)[C@H](O)CO [2-Deoxy-D-ribonic acid],-0.009975
15,Nc1ncnc2c1ncn2C1CC(O)C(CO)O1 (stereo not shown) [2-Deoxyadenosine],0.4061
16,Nc1ccn([C@H]2C[C@H](O)[C@@H](COP(=O)(O)OP(=O)(O)O)O2)c(=O)n1 [2-Deoxycytidine 5-diphosphate],0.01712

row,SMILES,log2(corrected fold change)
1,Nc1nc2c(ncn2[C@H]2C[C@H](O)[C@@H](COP(=O)(O)OP(=O)(O)O)O2)c(=O)[nH]1 [2-Deoxyguanosine 5-diphosphate],-0.09804
2,Nc1nc2c(ncn2[C@H]2C[C@H](O)[C@@H](COP(=O)(O)OP(=O)(O)OP(=O)(O)O)O2)c(=O)[nH]1 [2-Deoxyguanosine 5-triphosphate],0.05437
3,O=c1ccn([C@H]2C[C@H](O)[C@@H](CO)O2)c(=O)[nH]1 [2-Deoxyuridine],0.04824
4,CCC(C)C(O)C(=O)O (stereo not shown) [2-Hydroxy-3-methylpentanoic acid],-0.0302
5,CC(C)CC(O)C(=O)O (stereo not shown) [2-Hydroxyisocaproic acid],-0.0302
6,O=C(O)CCCC(=O)C(=O)O [2-Oxoadipic acid],-0.03769
7,O=C(O)COP(=O)(O)O [2-Phosphoglycolic acid],0.0426
8,"CC(C)=CC(=O)O [3,3-Dimethylacrylic acid]",0.01899
9,NC1CCCNC1=O (stereo not shown) [3-Aminopiperidin-2-one],0.003124
10,O=C(O)c1ccoc1 [3-Furoic acid],-0.01812
11,CC(O)(CC(=O)O)CC(=O)O [3-Hydroxy-3-methylglutaric acid],0.0406
12,CC(O)(CC(=O)O)CC(=O)SCCNC(=O)CCNC(=O)[C@H](O)C(C)(C)COP(=O)(O)OP(=O)(O)OC[C@H]1O[C@@H](n2cnc3c(N)ncnc32)[C@H](O)[C@@H]1OP(=O)(O)O (stereo partly shown) [3-Hydroxy-3-methylglutaryl coenzyme A],0.00866
13,Nc1c(O)cccc1C(=O)O [3-Hydroxyanthranilic acid],-0.02136
14,CC(O)CC(=O)SCCNC(=O)CCNC(=O)[C@H](O)C(C)(C)COP(=O)(O)OP(=O)(O)OC[C@H]1O[C@@H](n2cnc3c(N)ncnc32)[C@H](O)[C@@H]1OP(=O)(O)O (stereo partly shown) [3-Hydroxybutyryl coenzyme A],0.00715
15,O=C(O)CCO [3-Hydroxypropionic acid],-0.02892
16,CC(=CC(=O)O)CC(=O)O [3-Methylglutaconic acid],-0.01192

# Same assay, conditions: MIDAS screen, sheet eIF2Ba; metabolites screened in pools 1-4; p-value and q-value given
row,SMILES,log2(corrected fold change)
1,"OCC(O)c1ccc(O)c(O)c1 (racemic) [DL-3,4-Dihydroxyphenyl glycol]",-0.07769
2,CC(CNC(N)=O)C(=O)O (racemic) [DL-3-Ureidoisobutyric acid],0.1976
3,COc1cc(C(O)C(=O)O)ccc1O (racemic) [DL-4-Hydroxy-3-methoxymandelic acid],-0.08249
4,NCC(O)CCC(N)C(=O)O (racemic) [DL-5-Hydroxylysine],-0.09937
5,N[C@H](CCSSCC[C@@H](N)C(=O)O)C(=O)O (racemic) [DL-Homocystine],0.09463
6,O=C(O)C(O)c1ccccc1 (racemic) [DL-Mandelic acid],0.3212
7,NC(=O)CCC(N)C(=O)O (stereo in doubt) [D-Glutamine],0.1976
8,"NCCCN [1,3-Diaminopropane]",0.2387
9,Cn1cnc(C[C@H](N)C(=O)O)c1 [1-Methyl-L-histidine],-0.1945
10,"O=C(O)c1cccnc1C(=O)O [2,3-Pyridinedicarboxylic acid]",0.05596
11,"O=Cc1cc(O)ccc1O [2,5-Dihydroxybenzaldehyde]",0.1295
12,CCC(CO)C(=O)O (stereo not shown) [2-(Hydroxymethyl)butanoic acid],0.09429
13,COc1cccc(C(=O)O)c1N [2-Amino-3-methoxybenzoic acid],-0.1539
14,NC(CCCC(=O)O)C(=O)O (stereo not shown) [2-Aminoadipic acid],-0.07731
15,Nc1ccn([C@H]2C[C@H](O)[C@@H](COP(=O)(O)O)O2)c(=O)n1 [2-Deoxy-5-cytidylic acid],0.04298
16,O=CC[C@H](O)[C@H](O)CO [2-Deoxy-D-ribose],-0.2249
17,Nc1ncnc2c1ncn2[C@H]1C[C@H](O)[C@@H](COP(=O)(O)OP(=O)(O)OP(=O)(O)O)O1 [2-Deoxyadenosine 5-triphosphate],-0.07151
18,Nc1ccn([C@H]2C[C@H](O)[C@@H](CO)O2)c(=O)n1 [2-Deoxycytidine],0.344

row,SMILES,log2(corrected fold change)
1,Nc1nc2c(ncn2[C@H]2C[C@H](O)[C@@H](CO)O2)c(=O)[nH]1 [2-Deoxyguanosine],-0.1329
2,O=c1[nH]cnc2c1ncn2[C@H]1C[C@H](O)[C@@H](CO)O1 [2-Deoxyinosine],0.06917
3,O=P(O)(O)OC[C@H]1O[C@@H](O)C[C@@H]1O [2-Deoxyribose-5-phosphate],1.609
4,O=c1ccn([C@H]2C[C@H](O)[C@@H](COP(=O)(O)O)O2)c(=O)[nH]1 [2-Deoxyuridine 5-monophosphate],0.2736
5,CCC(O)C(=O)O (stereo not shown) [2-Hydroxybutanoic acid],0.07137
6,O=C(O)Cc1ccccc1O [2-Hydroxyphenylacetic acid],-0.07366
7,CCC(=O)C(=O)O [2-Ketobutyric acid],-0.05529
8,CC(CCC(=O)O)C(=O)O (stereo not shown) [2-Methylglutaric acid],-0.09665
9,"N[C@@H](Cc1ccc(O)c(O)c1)C(=O)O [3,4-Dihydroxy-L-phenylalanine]",0.5098
10,"O=C(O)Cc1ccc(O)c(O)c1 [3,4-Dihydroxyphenylacetic acid]",0.1411
11,"N[C@@H](Cc1cc(I)c(O)c(I)c1)C(=O)O [3,5-Diiodo-L-tyrosine]",0.05791
12,CC(CN)C(=O)O (stereo not shown) [3-Aminoisobutyric acid],-0.1018
13,CC(O)CC(=O)O (stereo not shown) [3-Hydroxybutyric acid],0.07137
14,N[C@@H](Cc1ccc(O)c(I)c1)C(=O)O [3-Iodo-L-tyrosine],0.6259
15,COc1cc(CCN)ccc1O [3-Methoxytyramine],0.126
16,CCC(C)C(=O)C(=O)O (stereo not shown) [3-Methyl-2-oxovaleric acid],-0.05419
17,CC(CC(=O)O)CC(=O)O [3-Methylglutaric acid],-0.09665

# — publication PMC8187479, “Sugar phosphate activation of the stress sensor eIF2B” (Nature Communications, 2021)
